Measurements: ChEMBL document CHEMBL4219202, “C21 steroidal glycosides with cytotoxic activities from Cynanchum otophyllum” (Bioorg Med Chem Lett, 2018)

Legend:
Assay type in all cases: functional, cell-based
MCF7 = assay: Cytotoxicity against human MCF7 cells assessed as reduction in cell viability after 48 hrs by MTS assay; settings: MCF7, 48 h
SW480 = assay: Cytotoxicity against human SW480 cells assessed as reduction in cell viability after 48 hrs by MTS assay; settings: SW480, 48 h
SMMC-7721 = assay: Cytotoxicity against human SMMC7721 cells assessed as reduction in cell viability after 48 hrs by MTS assay; settings: SMMC-7721, 48 h
HL-60 = assay: Cytotoxicity against human HL60 cells assessed as reduction in cell viability after 48 hrs by MTS assay; settings: HL-60, 48 h
A549 = assay: Cytotoxicity against human A549 cells assessed as reduction in cell viability after 48 hrs by MTS assay; settings: A549, 48 h

Row | SMILES | IC50 (MCF7) | IC50 (SW480) | IC50 (SMMC-7721) | IC50 (HL-60) | IC50 (A549)
1 | CO[C@H]1C[C@H](O[C@H]2CC[C@@]3(C)C(=CC[C@]4(O)[C@@H]3C[C@@H](OC(=O)/C=C/C(C)C)[C@@]3(C)[C@]4(O)CC[C@@]3(O)C(C)=O)C2)O[C@H](C)[C@H]1O[C@H]1C[C@H](OC)[C@H](O[C@H]2C[C@@H](OC)[C@H](O)[C@@H](C)O2)[C@@H](C)O1 | > 40 µM | > 40 µM | > 40 µM | 25.8 µM | > 40 µM
2 | CO[C@H]1C[C@H](O[C@H]2CC[C@@]3(C)C(=CC[C@]4(O)[C@@H]3C[C@@H](OC(=O)/C=C(\C)C(C)C)[C@@]3(C)[C@]4(O)CC[C@@]3(O)C(C)=O)C2)O[C@H](C)[C@H]1O[C@H]1C[C@H](OC)[C@H](O[C@H]2C[C@@H](OC)[C@H](O)[C@@H](C)O2)[C@@H](C)O1 | 16.1 µM | 30.3 µM | 27.9 µM | 11.4 µM | 27.7 µM
3 | CO[C@H]1C[C@H](O[C@H]2CC[C@@]3(C)C(=CC[C@]4(O)[C@@H]3C[C@@H](OC(=O)/C=C(\C)C(C)C)[C@@]3(C)[C@]4(O)CC[C@@]3(O)C(C)=O)C2)O[C@H](C)[C@H]1O[C@H]1C[C@H](OC)[C@H](O[C@H]2C[C@@H](OC)[C@H](O[C@H]3C[C@@H](OC)[C@H](O)[C@@H](C)O3)[C@@H](C)O2)[C@@H](C)O1 | 18 µM | 28.8 µM | 30.8 µM | 12.2 µM | > 40 µM
4 | CO[C@H]1C[C@H](O[C@H]2CC[C@@]3(C)C(=CC[C@]4(O)[C@@H]3C[C@@H](OC(=O)/C=C(\C)C(C)C)[C@@]3(C)[C@]4(O)CC[C@@]3(O)C(C)=O)C2)O[C@H](C)[C@H]1O[C@H]1C[C@H](O)[C@H](O[C@H]2C[C@@H](OC)[C@H](O)[C@@H](C)O2)[C@@H](C)O1 | 17.2 µM | 24.8 µM | 27.4 µM | 12.9 µM | 30.4 µM
5 | CO[C@H]1C[C@H](O[C@H]2[C@@H](OC)C[C@H](O[C@H]3CC[C@@]4(C)C(=CC[C@]5(O)[C@@H]4C[C@@H](OC(=O)/C=C/c4ccccc4)[C@@]4(C)[C@]5(O)CC[C@@]4(O)C(C)=O)C3)O[C@@H]2C)O[C@H](C)[C@H]1O | 25.6 µM | 36.7 µM | 33.1 µM | 20.6 µM | 35.5 µM
6 | CO[C@H]1C[C@H](O[C@H]2CC[C@@]3(C)C(=CC[C@]4(O)[C@@H]3C[C@@H](OC(=O)/C=C(\C)C(C)C)[C@@]3(C)[C@]4(O)CC[C@@]3(O)C(C)=O)C2)O[C@H](C)[C@H]1O | > 40 µM | > 40 µM | > 40 µM | 25.6 µM | > 40 µM
7 | CO[C@H]1C[C@H](O[C@H]2[C@@H](OC)C[C@H](O[C@H]3CC[C@]4(C)[C@H]5C[C@@H](OC(=O)/C=C(\C)C(C)C)[C@@]6(C)[C@](O)(CC[C@@]6(O)C(C)=O)[C@]5(O)C[C@@H]5O[C@@]54C3)O[C@@H]2C)O[C@H](C)[C@H]1O | > 40 µM | > 40 µM | > 40 µM | 15.8 µM | > 40 µM
8 | CO[C@H]1C[C@H](O[C@H]2CC[C@@]3(C)C(=CC[C@]4(O)[C@@H]3C[C@@H](OC(=O)c3ccc(O)cc3)[C@@]3(C)[C@]4(O)CC[C@@]3(O)C(C)=O)C2)O[C@H](C)[C@H]1O[C@H]1C[C@H](OC)[C@H](O[C@H]2C[C@@H](OC)[C@H](O)[C@@H](C)O2)[C@@H](C)O1 | > 40 µM | > 40 µM | > 40 µM | 29.1 µM | > 40 µM
9 | CO[C@H]1C[C@H](O[C@H]2CC[C@@]3(C)C(=CC[C@]4(O)[C@@H]3C[C@@H](OC(=O)c3ccccc3)[C@@]3(C)[C@]4(O)CC[C@@]3(O)C(C)=O)C2)O[C@H](C)[C@H]1O[C@H]1C[C@@H](OC)[C@H](O)[C@@H](C)O1 | > 40 µM | > 40 µM | > 40 µM | 15.6 µM | > 40 µM
10 | COc1cc(C(=O)O[C@@H]2C[C@@H]3[C@@]4(C)CC[C@H](O[C@H]5C[C@H](O)[C@H](O[C@H]6C[C@H](OC)[C@H](O[C@H]7C[C@@H](OC)[C@H](O)[C@@H](C)O7)[C@@H](C)O6)[C@@H](C)O5)CC4=CC[C@@]3(O)[C@@]3(O)CC[C@@](O)(C(C)=O)[C@@]23C)ccc1O | > 40 µM | > 40 µM | > 40 µM | 37.9 µM | > 40 µM
11 | CO[C@H]1C[C@H](O[C@H]2CC[C@@]3(C)C(=CC[C@]4(O)[C@@H]3C[C@@H](OC(=O)/C=C(\C)C(C)C)[C@@]3(C)[C@]4(O)CC[C@@]3(O)C(C)=O)C2)O[C@H](C)[C@H]1O[C@H]1C[C@@H](OC)[C@H](O)[C@@H](C)O1 | > 40 µM | > 40 µM | > 40 µM | 15.4 µM | > 40 µM
12 | CO[C@H]1C[C@H](O[C@H]2[C@@H](O)C[C@H](O[C@H]3CC[C@@]4(C)C(=CC[C@]5(O)[C@@H]4C[C@@H](OC(=O)/C=C(\C)C(C)C)[C@@]4(C)[C@]5(O)CC[C@@]4(O)C(C)=O)C3)O[C@@H]2C)O[C@H](C)[C@H]1O | > 40 µM | > 40 µM | > 40 µM | 15.7 µM | > 40 µM
13 | C/C=C(\C)C(=O)O[C@@H]1C[C@@H]2[C@@]3(C)CC[C@H](O[C@H]4C[C@H](OC)[C@H](O[C@H]5C[C@H](OC)[C@H](O[C@H]6C[C@@H](OC)[C@H](O)[C@@H](C)O6)[C@@H](C)O5)[C@@H](C)O4)CC3=CC[C@@]2(O)[C@@]2(O)CC[C@@](O)(C(C)=O)[C@@]12C | > 40 µM | > 40 µM | > 40 µM | 15.6 µM | > 40 µM
